Patent publication US9422254B2, “Methoxyacrylate-based fungicide and methods for preparing and using the same” (priority 2008, dated 2016)
“And” between values parts separate entries of the source, which are not always exact repeats. Identical values can stand only once.

Columns and labels:
[1] = system: Rhizoctonia solani (wheat sheath blight); assay: microbe, parasite or virus in culture; format: cell-based; conditions: read-out: Inhibition rate (%)
Cercospora arachidicola = assay: microbe, parasite or virus in culture; format: cell-based; conditions: Mycosphaerella arachidis, read-out: Inhibition rate (%)
Acute oral test = format: in vivo, rat; conditions: in vivo
Description: (§1) The toxicological indexes of the compound were tested following the standard GB15670-1995 “Toxicological test methods of pesticides for registration” by Tongji Medical College, Huazhong University of Science and Technology.

rat = assay: Acute oral test; format: in vivo; conditions: rat
Description: as §1

Pyricularia oryzae = assay: microbe, parasite or virus in culture; format: cell-based; conditions: read-out: Inhibition rate (%)
[2] = Acute toxicity test on zebra fish; conditions: in vivo
Description: (§2) After acute toxicity and Ames test had been finished, environmental toxicity test was conducted following “Guideline for Environmental Safety Evaluation of Chemical Pesticides” of Agriculture Ministry of China by Shenyang Chemical Research Institute/Supervision and Test Center for Pesticide Safety Evaluation and Quality Control.

bee = assay: Acute contact toxicity test on bee; format: in vivo
Description: as §2

Bipolaris sorokiniana = assay: microbe, parasite or virus in culture; format: cell-based; conditions: read-out: Inhibition rate (%)
[3] = system: Cucumber gray mold (F-109); assay: In vivo micro-screening assay
Description: In Vivo Micro-Screening Assay
To further study the fungicidal spectrum of the compound of Formula (I), indoor in vivo micro-screening assay were carried out on cucumber gray mold, cucumber scab, cucumber sclerotinia rot, cucumber brown spot, pepper phytophthora blight, and rice sheath blight.
Medicament to be tested and medicament of control groups were prepared as needed in a sunny morning. Cucumber gray mold, cucumber scab, cucumber brown spot, cucumber sclerotinia rot, and rice sheath blight were medicated by spray, and after air dry, pathogens of cucumber scab and of cucumber brown spot were inoculated through spraying spore suspension respectively, pathogens of cucumber gray mold, of cucumber sclerotinia rot, and of rice sheath blight were inoculated through lawn foliage. Pepper phytophthora blight was medicated and inoculated by root-irrigation. Subsequently, all seedlings were cultured in wet environment.
After the disease of control groups were serious, spot area, disease index, and the diseased seedling rate were investigated to calculate the efficacy. Cucumber scab, cucumber brown spot, and pepper phytophthora blight were investigated by grading method. The spot extension area of cucumber gray mold and of rice sheath blight was investigated. The diseased seedling rate of cucumber sclerotinia rot was investigated. Disease index=Σ(amount of infected diseased leaves in a grade×relative value of the grade)×100/(total amount of leaves×9); Diseased seedling rate (%)=(total amount of seedlings−amount of diseased seedlings)/total amount of seedlings×100% Prevention and treatment effect (%)=(disease of control group−disease of experiment group)/disease of control group×100%

Phytophthora infestans = assay: microbe, parasite or virus in culture; format: cell-based; conditions: read-out: Inhibition rate (%)
cucumber powdery mildew = assay: Field efficacy trial of emulsifier concentrate 1, cucumber powdery mildew; format: in vivo
Description: To a beaker (1000 mL), 50 g (100% basis) of the compound of Formula (I), 150 g of DMF, and 50 g of acetone were added and stirred for dissolution. To the solution, 25 g of pesticide emulsifier No. 500 and 50 g of Tween 80, 20 g of epoxidized soybean oil, and […] of toluene were added. Thus, the emulsifier concentrate 1 having 5 wt. % of the compound of Formula (I) was obtained and further packed.
On the basis of indoor activity evaluation, field efficacy trials of the compound of Formula (I) on cucumber downy mildew, cucumber powdery mildew, and melon powdery mildew were conducted.

[4] = system: Pseudoperonospora cubensis; assay: Fungicidal activity on potted cucumber, downy mildew; format: in vivo
Description: 1. Fungicidal Activity Assay on Potted Plants at Room Temperature
Take cucumber downy mildew and powdery mildew as examples, the assay were carried out as follows:
1) Pseudoperonospora cubensis: Pathogen of Cucumber Downy Mildew
Two cucumber seedlings (the growing point had been removed) having the same growth status and in the true leaf stage were collected, sprayed with the compound of Formula (I), and dried naturally for 24 hrs for inoculation. Fresh cucumber leaves infected by downy mildew were collected, and sporangium on the back was rinsed with distilled water (about 10° C.) dipped with a brush. The obtained sporangium was prepared into a suspension (2-3×10^5 cells/mL). The suspension was sprayed uniformly with an inoculation sprayer (0.1 MPa) to the naturally-dried cucumber seedlings. Subsequently, the seedlings were cultured in an artificial climate chamber. The relative humidity was maintained at 100%, with temperature of between 15 and 20° C. 24 hrs later, the relative humidity was maintained at 90%, with temperature of between 15 and 24° C. 5 days later, compared with the control, the disease of the cucumber seedlings was graded. Based on the resultant disease index, the efficacy was calculated.
The grading standard follows “Guidelines on efficacy evaluation of pesticides”, and the efficacy is calculated on the basis of the disease index.

Ames test = format: cell-based
Description: as §1

[5] = Pseudoperonospora cubensis, secondary screening

CO/C=C(/C(=O)OC)c1ccccc1CSc1nc2cc(OC)ccc2s1 [Compound of Formula (I), (E)-methyl 3-methoxy-2-(2-((5-methoxy-benzothiazol-2-ylthio)methyl)phenyl)acrylate]
inhibition at 0.3 µg/mL ([1]; 0.3 mg/L): 22.2% | inhibition at 3 µg/mL ([1]; 3 mg/L): 44.4% | inhibition at 30 µg/mL ([1]; 30 mg/L): 68.5% | inhibition at 0.3 µg/mL (Cercospora arachidicola; 0.3 mg/L): 30.9% | inhibition at 3 µg/mL (Cercospora arachidicola; 3 mg/L): 35.7% | inhibition at 30 µg/mL (Cercospora arachidicola; 30 mg/L): 40.5% | LD50 (Acute oral test; Female rat): > 5000 mg/kg | LD50 (Acute oral test; Male rat): > 5000 mg/kg | Toxicity (acute oral test) (rat): Low toxicity | inhibition at 0.3 µg/mL (Pyricularia oryzae): 23.6% | inhibition at 3 µg/mL (Pyricularia oryzae): 56.5% | inhibition at 30 µg/mL (Pyricularia oryzae): 82.6% | LC50 at 24 h ([2]; 24 hrs): 0.069 µg/mL | LC50 at 48 h ([2]; 48 hrs): 0.06 µg/mL | LC50 at 72 h ([2]; 72 hrs): 0.047 µg/mL | LC50 at 96 h ([2]; 96 hrs): 0.043 µg/mL | LC50 (48 hrs) (bee): LC50 (48 hrs) > 100 μg a.i./per bee | inhibition at 0.3 µg/mL (Bipolaris sorokiniana; 0.3 mg/L): 18.8% | inhibition at 3 µg/mL (Bipolaris sorokiniana; 3 mg/L): 40.6% | inhibition at 30 µg/mL (Bipolaris sorokiniana; 30 mg/L): 43.8% | Efficacy (%) ([3]; 100 mg/L): 92.19% | Spot area (mm^2) ([3]; 100 mg/L): 8.03 mm^2 | Efficacy (%) ([3]; 500 mg/L): 96.43% | Spot area (mm^2) ([3]; 500 mg/L): 3.67 mm^2 | prevention and treatment effect ([3]; cucumber gray mold, strains not distinguished): good prevention and treatment effect | inhibition at 0.3 µg/mL (Phytophthora infestans): 15.3% | inhibition at 3 µg/mL (Phytophthora infestans): 33.7% | inhibition at 30 µg/mL (Phytophthora infestans): 38% | Disease index (%) (cucumber powdery mildew; 12.5 mg/L, 7th day, Average): 5.9% | Efficacy (%) (cucumber powdery mildew; 12.5 mg/L, 7th day, Average): 70.50% | Disease index (%) (cucumber powdery mildew; 12.5 mg/L, 7th day, No. 1-4): 5.5% and 6.7% and 5.8% | Efficacy (%) (cucumber powdery mildew; 12.5 mg/L, 7th day, No. 1-4): 71.05% and 70.59% and 71.54% and 69.71% | Disease index (%) (cucumber powdery mildew; 12.5 mg/L, 14th day, Average): 6.8% | Efficacy (%) (cucumber powdery mildew; 12.5 mg/L, 14th day, Average): 75.66% | Disease index (%) (cucumber powdery mildew; 12.5 mg/L, 14th day, No. 1-4): 6.4% and 6.3% and 7.8% and 6.6% | Efficacy (%) (cucumber powdery mildew; 12.5 mg/L, 14th day, No. 1-4): 74.80% and 76.40% and 75.73% and 76.45% | Disease index (%) (cucumber powdery mildew; 12.5 mg/L, 21st day, Average): 12.7% | Efficacy (%) (cucumber powdery mildew; 12.5 mg/L, 21st day, Average): 68.91% | Disease index (%) (cucumber powdery mildew; 12.5 mg/L, 21st day, No. 1-4): 12.6% and 12.0% and 13.9% and 12.3% | Efficacy (%) (cucumber powdery mildew; 12.5 mg/L, 21st day, No. 1-4): 67.88% and 68.34% and 69.40% and 70.29% | Disease index (%) (cucumber powdery mildew; 25 mg/L, 7th day, Average): 3.9% | Efficacy (%) (cucumber powdery mildew; 25 mg/L, 7th day, Average): 77.54% | Disease index (%) (cucumber powdery mildew; 25 mg/L, 7th day, No. 1-4): 3.6% and 4.2% and 4.6% and 3.3% | Efficacy (%) (cucumber powdery mildew; 25 mg/L, 7th day, No. 1-4): 78.48% and 76.74% and 77.57% and 77.35% | Disease index (%) (cucumber powdery mildew; 25 mg/L, 14th day, Average): 4.0% | Efficacy (%) (cucumber powdery mildew; 25 mg/L, 14th day, Average): 83.51% | Disease index (%) (cucumber powdery mildew; 25 mg/L, 14th day, No. 1-4): 3.5% and 4.2% and 4.8% | Efficacy (%) (cucumber powdery mildew; 25 mg/L, 14th day, No. 1-4): 84.35% and 83.71% and 82.85% and 83.59% | Disease index (%) (cucumber powdery mildew; 25 mg/L, 21st day, Average): 7.0% | Efficacy (%) (cucumber powdery mildew; 25 mg/L, 21st day, Average): 77.78% | Disease index (%) (cucumber powdery mildew; 25 mg/L, 21st day, No. 1-4): 6.8% and 8.0% and 6.2% | Disease index (%) (cucumber powdery mildew; 50 mg/L, 7th day, Average): 2.4% | Efficacy (%) (cucumber powdery mildew; 50 mg/L, 7th day, Average): 85.63% | Disease index (%) (cucumber powdery mildew; 50 mg/L, 7th day, No. 1-4): 2.1% and 2.4% and 2.8% and 2.2% | Efficacy (%) (cucumber powdery mildew; 50 mg/L, 7th day, No. 1-4): 85.88% and 84.49% and 86.18% and 85.31% | Disease index (%) (cucumber powdery mildew; 50 mg/L, 14th day, Average): 2.1% | Efficacy (%) (cucumber powdery mildew; 50 mg/L, 14th day, Average): 90.99% | Disease index (%) (cucumber powdery mildew; 50 mg/L, 14th day, No. 1-4): 2.1% and 1.8% and 2.7% and 1.9% | Efficacy (%) (cucumber powdery mildew; 50 mg/L, 14th day, No. 1-4): 89.44% and 91.85% and 90.23% and 91.34% | Disease index (%) (cucumber powdery mildew; 50 mg/L, 21st day, Average): 3.6% | Efficacy (%) (cucumber powdery mildew; 50 mg/L, 21st day, Average): 89.45% | Disease index (%) (cucumber powdery mildew; 50 mg/L, 21st day, No. 1-4): 3.2% and 3.0% and 4.4% and 3.7% | Efficacy (%) (cucumber powdery mildew; 50 mg/L, 21st day, No. 1-4): 89.57% and 90.44% and 88.74% and 88.58% | Disease index (%) (cucumber powdery mildew; 100 mg/L, 7th day, Average): 1.5% | Efficacy (%) (cucumber powdery mildew; 100 mg/L, 7th day, Average): 91.67% | Disease index (%) (cucumber powdery mildew; 100 mg/L, 7th day, No. 1-4): 1.7% and 1.2% and 1.9% | Efficacy (%) (cucumber powdery mildew; 100 mg/L, 7th day, No. 1-4): 91.17% and 92.74% and 90.16% and 92.41% | Disease index (%) (cucumber powdery mildew; 100 mg/L, 14th day, Average): 1.2% | Efficacy (%) (cucumber powdery mildew; 100 mg/L, 14th day, Average): 95.23% | Disease index (%) (cucumber powdery mildew; 100 mg/L, 14th day, No. 1-4): 0.9% and 1.3% and 1.4% and 1.0% | Efficacy (%) (cucumber powdery mildew; 100 mg/L, 14th day, No. 1-4): 96.46% and 94.43% and 95.18% and 95.68% | Disease index (%) (cucumber powdery mildew; 100 mg/L, 21st day, Average): 2.9% | Efficacy (%) (cucumber powdery mildew; 100 mg/L, 21st day, Average): 91.52% | Disease index (%) (cucumber powdery mildew; 100 mg/L, 21st day, No. 1-4): 3.3% and 2.6% and 2.8% and 3.0% | Efficacy (%) (cucumber powdery mildew; 100 mg/L, 21st day, No. 1-4): 91.58% and 92.15% and 93.17% and 91.23% | Efficacy (%) ([4]; 3.125 mg/L, secondary screening): 69.92% | Efficacy (%) ([4]; 6.25 mg/L, secondary screening): 82.89% | Efficacy (%) ([4]; 12.5 mg/L, Table 1): 87.34% | Efficacy (%) ([4]; 12.5 mg/L, secondary screening): 91.50% | Efficacy (%) ([4]; 25 mg/L, Table 1): 94.16% | Efficacy (%) ([4]; 25 mg/L, secondary screening): 98.15% | Efficacy (%) ([4]; 50 mg/L, Table 1): 100% | Efficacy (%) ([4]; 50 mg/L, secondary screening): 100% | Efficacy (%) ([4]; 100 mg/L, Table 1): 100% | Efficacy (%) ([4]; 200 mg/L, Table 1): 100% | EC50 [4, 5]: 1.52 µg/mL | EC90 [4, 5]: 9.76 µg/mL | preventive effect ([4]; downy mildew): good preventive effect | Ames test (Ames test): Negative
